Results published in ChEMBL document CHEMBL5518230, “Identification of a Novel Selective CDK9 Inhibitor for the Treatment of CRC: Design, Synthesis, and Biological Activity Evaluation” (J Med Chem, 2024).
Activity calls are given as the source filed them. The rule behind the calls is not given here.

What was measured:
HCT-116 [1] = experiment: Induction of apoptosis in human HCT-116 cells assessed as effect on RNA polymerase II expression at 25 to 400 nM incubated for 48 hrs by Western blotting analysis; format: functional, cell-based; conditions: dose 25-400 nM
[2] = Intrinsic microsomal clearance in human liver microsomes at 100 uM measured upto 60 mins in presence of NADPH by LC-MS/MS analysis; format: ADME, Microsome; conditions: read-out: CLH
[3] = biological target: cAMP-dependent protein kinase catalytic subunit alpha (Homo sapiens) (UniProt P17612); experiment: Inhibition of human PKACalpha at 100 nM by kinase profiling assay relative to control
[4] = Apparent volume of distribution in Sprague-Dawley rat at 2 mg/kg,iv administration measured for 0.25 to 24 hrs by LC-MS/MS analysis; format: ADME, organism-based; conditions: in vivo, time 0.25-24 hrs, read-out: Vz
[5] = biological target: Aurora kinase B (Homo sapiens) (UniProt Q96GD4); experiment: Inhibition of human AurB at 100 nM by kinase profiling assay relative to control
[6] = AUC (0 to t) in Sprague-Dawley rat at 10 mg/kg,po administration measured for 0.25 to 24 hrs by LC-MS/MS analysis; format: ADME, organism-based; conditions: in vivo, time 0.25-24 hrs
HCT-116 [7] = experiment: Antitumor activity against human HCT-116 cells xenografted in BALB/c mouse assessed as downregulation of PARP expression at 25 mg/kg,po administrated once daily for 3 weeks by Western blotting analysis; format: functional, organism-based
HCT-116 [8] = experiment: Antitumor activity against human HCT-116 cells xenografted in BALB/c mouse assessed as upregulation of PARP expression at 50 mg/kg,po administrated once daily for 3 weeks by Western blotting analysis; format: functional, organism-based
HCT-116 [9] = experiment: Antitumor activity against human HCT-116 cells xenografted in BALB/c mouse assessed as downregulation of Mcl-1 expression at 50 mg/kg,po administrated once daily for 3 weeks by Western blotting analysis; format: functional, organism-based
CYP3A4 = CYP3A4 (Homo sapiens, UniProt P08684); experiment: Inhibition of CYP3A4 in human liver microsomes using ketoconazole as […] at 10 uM preincubated for 10 mins followed by NADPH addition measured after 15 mins by LC-MS/MS analysis relative to control; format: ADME, Microsome; conditions: probe ketoconazole, time 25 min
[10] = Growth inhibition of human CCC-HIE-2 cells incubated for 48 hrs by CCK-8 assay; format: toxicity, cell-based
[11] = Toxicity in BALB/c mouse xenografted with human HCT-116 cells assessed as body weight loss at 25 mg/kg,po administrated once daily for 3 weeks; format: organism-based; conditions: in vivo, 504 h
[12] = biological target: Serine/threonine-protein kinase PAK 4 (Homo sapiens) (UniProt O96013); experiment: Inhibition of human PAK4 at 100 nM by kinase profiling assay relative to control
[13] = biological target: Activin receptor type-1B (Homo sapiens) (UniProt P36896); experiment: Inhibition of human ALK4 at 100 nM by kinase profiling assay relative to control
HCT-116 [14] = experiment: Induction of apoptosis in human HCT-116 cells assessed as increase in early apoptotic cells incubated for 48 hrs by Annexin V-FITC/PI staining based flow cytometric analysis; format: functional, cell-based
[15] = biological target: Homeodomain-interacting protein kinase 1 (Homo sapiens) (UniProt Q86Z02); experiment: Inhibition of human HIPK1 at 100 nM by kinase profiling assay relative to control
HCT-116 [16] = experiment: Antitumor activity against human HCT-116 cells xenografted in BALB/c mouse assessed as downregulation of Mcl-1 expression at 25 mg/kg,po administrated once daily for 3 weeks by Western blotting analysis; format: functional, organism-based
[17] = Bioavailability in Sprague-Dawley rat at 2 mg/kg,iv administration measured for 0.25 to 24 hrs by LC-MS/MS analysis; format: ADME, organism-based; conditions: in vivo, time 0.25-24 hrs
[18] = biological target: TGF-beta receptor type-2 (Homo sapiens) (UniProt P37173); experiment: Inhibition of human TGFbetaR2 at 100 nM by kinase profiling assay relative to control
HCT-116 [19] = experiment: Induction of apoptosis in human HCT-116 cells assessed as increase in red fluorescence emission by TUNEL staining fluorescence microscopic analysis; format: functional, cell-based

Chain of Activin receptor type-1B (Homo sapiens) (P36896 whole entry): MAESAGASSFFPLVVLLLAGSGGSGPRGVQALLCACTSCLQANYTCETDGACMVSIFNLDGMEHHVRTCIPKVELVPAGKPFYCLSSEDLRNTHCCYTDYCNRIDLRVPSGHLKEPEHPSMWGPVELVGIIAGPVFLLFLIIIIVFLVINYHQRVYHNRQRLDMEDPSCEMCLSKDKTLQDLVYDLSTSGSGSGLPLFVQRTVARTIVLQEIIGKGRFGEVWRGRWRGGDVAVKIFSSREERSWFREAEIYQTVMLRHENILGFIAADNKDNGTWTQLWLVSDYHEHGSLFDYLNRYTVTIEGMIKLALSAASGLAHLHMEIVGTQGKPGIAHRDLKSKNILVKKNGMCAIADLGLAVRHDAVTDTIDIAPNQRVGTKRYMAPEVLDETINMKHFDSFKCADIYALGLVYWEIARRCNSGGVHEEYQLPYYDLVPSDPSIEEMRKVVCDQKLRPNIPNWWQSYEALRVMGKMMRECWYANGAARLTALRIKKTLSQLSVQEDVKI
Chain of CYP3A4 (P08684 whole entry): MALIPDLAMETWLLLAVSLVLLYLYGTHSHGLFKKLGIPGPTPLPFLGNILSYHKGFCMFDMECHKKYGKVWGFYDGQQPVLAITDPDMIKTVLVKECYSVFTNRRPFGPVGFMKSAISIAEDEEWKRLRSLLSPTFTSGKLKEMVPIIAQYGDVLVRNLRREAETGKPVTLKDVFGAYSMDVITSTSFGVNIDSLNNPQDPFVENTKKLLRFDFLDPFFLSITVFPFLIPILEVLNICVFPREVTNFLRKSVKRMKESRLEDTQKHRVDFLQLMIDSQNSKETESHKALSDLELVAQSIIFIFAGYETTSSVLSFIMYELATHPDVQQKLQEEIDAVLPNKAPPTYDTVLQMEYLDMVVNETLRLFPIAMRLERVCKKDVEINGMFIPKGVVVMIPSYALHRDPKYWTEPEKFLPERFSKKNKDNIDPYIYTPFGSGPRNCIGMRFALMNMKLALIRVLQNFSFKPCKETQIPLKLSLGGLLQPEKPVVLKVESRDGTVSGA
Chain of Aurora kinase B (Homo sapiens) (Q96GD4 whole entry): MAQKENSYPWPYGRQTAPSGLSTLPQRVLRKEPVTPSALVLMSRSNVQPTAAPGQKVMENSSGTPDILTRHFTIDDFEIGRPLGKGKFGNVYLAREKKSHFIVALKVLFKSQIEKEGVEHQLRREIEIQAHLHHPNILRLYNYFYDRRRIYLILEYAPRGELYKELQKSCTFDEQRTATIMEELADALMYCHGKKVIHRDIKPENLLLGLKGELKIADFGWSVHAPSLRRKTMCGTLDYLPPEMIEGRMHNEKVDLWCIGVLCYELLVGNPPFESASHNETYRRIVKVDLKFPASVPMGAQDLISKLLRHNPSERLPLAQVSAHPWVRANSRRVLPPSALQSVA
Chain of Homeodomain-interacting protein kinase 1 (Homo sapiens) (Q86Z02 whole entry, looked up): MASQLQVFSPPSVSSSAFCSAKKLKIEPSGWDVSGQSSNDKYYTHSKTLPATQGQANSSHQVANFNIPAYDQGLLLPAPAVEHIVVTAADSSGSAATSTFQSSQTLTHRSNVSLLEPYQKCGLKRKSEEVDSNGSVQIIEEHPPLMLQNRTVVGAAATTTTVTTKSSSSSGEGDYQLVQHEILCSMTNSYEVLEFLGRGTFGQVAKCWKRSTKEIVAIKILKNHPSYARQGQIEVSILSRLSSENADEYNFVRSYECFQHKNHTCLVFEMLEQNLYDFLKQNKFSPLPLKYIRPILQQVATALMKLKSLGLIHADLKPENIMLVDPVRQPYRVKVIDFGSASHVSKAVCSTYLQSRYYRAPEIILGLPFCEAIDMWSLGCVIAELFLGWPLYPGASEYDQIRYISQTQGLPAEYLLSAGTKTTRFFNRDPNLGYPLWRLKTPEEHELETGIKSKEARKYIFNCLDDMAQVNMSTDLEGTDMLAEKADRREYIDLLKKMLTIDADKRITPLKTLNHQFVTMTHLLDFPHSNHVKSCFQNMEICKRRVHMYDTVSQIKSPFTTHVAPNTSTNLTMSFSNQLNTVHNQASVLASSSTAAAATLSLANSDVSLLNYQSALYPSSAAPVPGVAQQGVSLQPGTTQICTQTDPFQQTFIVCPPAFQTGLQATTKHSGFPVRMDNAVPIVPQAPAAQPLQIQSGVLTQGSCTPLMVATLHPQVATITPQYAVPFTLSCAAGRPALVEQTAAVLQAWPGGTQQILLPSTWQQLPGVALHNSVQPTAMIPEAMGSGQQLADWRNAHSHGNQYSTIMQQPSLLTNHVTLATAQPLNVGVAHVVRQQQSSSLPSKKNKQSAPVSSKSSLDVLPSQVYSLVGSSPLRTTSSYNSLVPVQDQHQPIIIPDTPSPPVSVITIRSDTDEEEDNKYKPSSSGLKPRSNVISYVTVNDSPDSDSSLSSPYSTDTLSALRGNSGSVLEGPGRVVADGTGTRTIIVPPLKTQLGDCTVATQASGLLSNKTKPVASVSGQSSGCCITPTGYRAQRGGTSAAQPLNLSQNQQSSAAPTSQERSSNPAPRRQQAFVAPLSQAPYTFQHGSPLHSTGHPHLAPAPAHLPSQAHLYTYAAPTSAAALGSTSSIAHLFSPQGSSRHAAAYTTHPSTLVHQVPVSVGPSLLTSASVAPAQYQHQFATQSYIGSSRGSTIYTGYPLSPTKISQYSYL
Chain of Serine/threonine-protein kinase PAK 4 (Homo sapiens) (O96013 whole entry, looked up): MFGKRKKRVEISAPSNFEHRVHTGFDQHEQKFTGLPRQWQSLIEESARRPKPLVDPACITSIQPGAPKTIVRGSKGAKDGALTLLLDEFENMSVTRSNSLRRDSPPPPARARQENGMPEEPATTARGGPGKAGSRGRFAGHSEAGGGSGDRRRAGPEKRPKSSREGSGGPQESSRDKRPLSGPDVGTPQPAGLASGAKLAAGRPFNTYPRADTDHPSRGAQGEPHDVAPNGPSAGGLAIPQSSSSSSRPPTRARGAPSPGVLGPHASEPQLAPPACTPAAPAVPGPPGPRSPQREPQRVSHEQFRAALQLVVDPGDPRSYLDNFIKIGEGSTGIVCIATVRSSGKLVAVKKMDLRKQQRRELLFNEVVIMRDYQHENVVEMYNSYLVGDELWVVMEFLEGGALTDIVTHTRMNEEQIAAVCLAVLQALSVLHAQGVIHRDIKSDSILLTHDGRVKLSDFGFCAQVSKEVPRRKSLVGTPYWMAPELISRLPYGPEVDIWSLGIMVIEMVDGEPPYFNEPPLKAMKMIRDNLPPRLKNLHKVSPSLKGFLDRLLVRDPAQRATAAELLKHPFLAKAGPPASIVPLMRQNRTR
Chain of TGF-beta receptor type-2 (Homo sapiens) (P37173 whole entry): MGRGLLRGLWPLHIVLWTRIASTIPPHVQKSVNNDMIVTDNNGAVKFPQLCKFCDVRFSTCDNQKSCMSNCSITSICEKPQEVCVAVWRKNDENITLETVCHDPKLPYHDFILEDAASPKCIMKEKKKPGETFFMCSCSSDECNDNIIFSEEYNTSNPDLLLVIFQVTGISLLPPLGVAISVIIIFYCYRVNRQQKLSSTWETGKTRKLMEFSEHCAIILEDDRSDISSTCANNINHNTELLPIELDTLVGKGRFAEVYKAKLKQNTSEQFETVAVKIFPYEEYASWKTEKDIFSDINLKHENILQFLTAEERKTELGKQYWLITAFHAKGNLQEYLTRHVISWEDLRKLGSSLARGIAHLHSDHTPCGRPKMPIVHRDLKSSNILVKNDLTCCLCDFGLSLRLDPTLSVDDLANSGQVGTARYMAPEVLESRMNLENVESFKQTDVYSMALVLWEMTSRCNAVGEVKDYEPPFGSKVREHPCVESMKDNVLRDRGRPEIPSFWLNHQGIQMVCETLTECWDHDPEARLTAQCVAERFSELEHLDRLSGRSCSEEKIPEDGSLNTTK

**Q.** With `CC(C)n1nnc2ccc(-c3ccnc(Nc4cc(C(=O)N5CCCN(C)CC5)ccn4)c3)cc21` as the compound, how does the Activity (HCT-116 [1]) read?
**A.** The Activity was “inactive”.

**Q.** What about the microsomal CLint at 100 µM [2] of the same compound?
**A.** Its microsomal CLint at 100 µM is 55.1 µL/min/mg.

**Q.** And the inhibition [3]?
**A.** Its inhibition is less than 50%.

**Q.** What about the Vd [4] of the same compound?
**A.** The Vd was 13.4 L/kg.

**Q.** And the inhibition [5]?
**A.** The inhibition was less than 50%.

**Q.** What about the AUC(0-t) [6] of the same compound?
**A.** Its AUC(0-t) is 168 ng·h/mL.

**Q.** And the Activity (HCT-116 [7])?
**A.** The Activity was “Active”.

**Q.** And the Activity (HCT-116 [8])?
**A.** Its Activity is “Active”.

**Q.** What about the Activity (HCT-116 [9]) of the same compound?
**A.** Its Activity is “Active”.

**Q.** And the inhibition at 0.25 h, 10 µM (CYP3A4)?
**A.** The inhibition at 0.25 h, 10 µM was 0%.

**Q.** What about the GI50 at 48 h [10] of the same compound?
**A.** Its GI50 at 48 h is 9.51 µM.

**Q.** And the Activity [11]?
**A.** The Activity was “Non-Toxic”.

**Q.** What about the inhibition [12] of the same compound?
**A.** Its inhibition is less than 50%.

**Q.** And the inhibition [13]?
**A.** The inhibition was less than 50%.

**Q.** What about the Activity (HCT-116 [14]) of the same compound?
**A.** Its Activity is “Dose-Dependent Effect”.

**Q.** And the inhibition [15]?
**A.** Its inhibition is less than 50%.

**Q.** What about the Activity (HCT-116 [16]) of the same compound?
**A.** Its Activity is “Active”.

**Q.** And the bioavailability [17]?
**A.** The bioavailability was 12.3%.

**Q.** What about the inhibition [18] of the same compound?
**A.** Its inhibition is less than 50%.

**Q.** What about the Activity (HCT-116 [19]) of the same compound?
**A.** Its Activity is “Dose-Dependent Effect”.
